Like-named read-outs stand apart in the source and are kept apart here.
How the values were obtained:
NDM-1 = NDM-1 (Klebsiella pneumoniae, UniProt C7C422); experiment: biochemical; type: biochemical
IMP-1 = IMP-1 (Serratia marcescens, UniProt P52699); experiment: biochemical; type: biochemical; settings: read-out: IMP-1 IC50
VIM-1 = VIM-1 (Pseudomonas aeruginosa (strain ATCC 15692 / DSM 22644 / CIP 104116 / JCM 14847 / LMG 12228 / 1C / PRS 101 / PAO1), UniProt A0A0F7KYQ8); experiment: Enzyme activity: determination of IC50, fluorescence assay with CCF2-FA substrate (VIM-1); type: biochemical
[1] = test system: Klebsiella pneumoniae expressing VIM-1 (IHMA599644); experiment: Antibiotic potentiation activity: synergistic concentration (MITC95) with imipenem, OD600 growth; type: cell-based
Outline: (§1)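 In 1.1× CAMHB, clinical isolates from overnight plates were challenged with test compound alongside imipenem at an assay concentration of 4 μg/ml, sometimes 1 μg/ml. Plates sat covered at 35 °C for 22–24 h prior to spectrophotometric reading.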

[2] = test system: Serratia marcescens expressing IMP-1 (CL5741); experiment: as above; type: cell-based
Outline: as §1

[3] = test system: Escherichia coli expressing NDM-1 (CLB30016); experiment: as above; type: cell-based
Outline: as §1

[4] = NDM-1 enzyme, CCF2-FA fluorescence assay, read-out: NDM-1 IC50
[5] = IMP-1 enzyme, CCF2-FA fluorescence assay
[6] = VIM-1 enzyme, CCF2-FA fluorescence assay, read-out: VIM-1 IC50
[7] = Klebsiella pneumoniae expressing VIM-1 (IHMA599644), 95% growth inhibition
[8] = Serratia marcescens expressing IMP-1 (CL5741), 95% growth inhibition
[9] = Escherichia coli expressing NDM-1 (CLB30016), 95% growth inhibition
[10] = fluorescence assay with CCF2-FA substrate, read-out: NDM-1 IC50
[11] = fluorescence assay with CCF2-FA substrate
[12] = fluorescence assay with CCF2-FA substrate, read-out: VIM-1 IC50
[13] = IHMA599644 (VIM-1), 95% inhibition of bacterial growth
[14] = CL5741 (IMP-1), 95% inhibition of bacterial growth
[15] = CLB30016 (NDM-1), 95% inhibition of bacterial growth
[16] = NDM-1 enzyme, CCF2-FA substrate, read-out: NDM-1 IC50
[17] = IMP-1 enzyme, CCF2-FA substrate
[18] = VIM-1 enzyme, CCF2-FA substrate, read-out: VIM-1 IC50
[19] = Klebsiella pneumoniae IHMA599644 (VIM-1), 95% growth inhibition
[20] = Serratia marcescens CL5741 (IMP-1), 95% growth inhibition
[21] = (CLB30016, NDM-1), 95% growth inhibition
[22] = concentration giving 95% inhibition of bacterial growth
[23] = VIM-1 IC50, VIM-1 enzyme, CCF2-FA substrate

Chain of IMP-1 (P52699 whole entry, looked up): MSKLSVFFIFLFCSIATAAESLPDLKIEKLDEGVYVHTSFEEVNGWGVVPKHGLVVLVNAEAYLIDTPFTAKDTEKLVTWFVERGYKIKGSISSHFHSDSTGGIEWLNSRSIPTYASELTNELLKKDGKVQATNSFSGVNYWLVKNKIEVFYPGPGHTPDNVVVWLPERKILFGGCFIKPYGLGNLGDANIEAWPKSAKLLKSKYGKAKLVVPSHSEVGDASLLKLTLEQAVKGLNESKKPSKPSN
Chain of NDM-1 (C7C422 whole entry, looked up, species assumed): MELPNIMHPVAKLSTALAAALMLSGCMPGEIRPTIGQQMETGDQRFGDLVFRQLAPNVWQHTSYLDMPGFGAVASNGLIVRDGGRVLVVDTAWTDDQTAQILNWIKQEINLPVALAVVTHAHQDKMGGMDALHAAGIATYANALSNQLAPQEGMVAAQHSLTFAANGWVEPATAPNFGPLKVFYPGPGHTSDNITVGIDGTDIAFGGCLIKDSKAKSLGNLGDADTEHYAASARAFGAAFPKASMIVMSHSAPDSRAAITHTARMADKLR

SMILES	IC50 (IMP-1; [5]) [nM]	Klebsiella pneumoniae MITC95 [1, 7] [µM]	Serratia marcescens MITC95 [2, 8] [µM]	Escherichia coli MITC95 [3, 9] [µM]	IC50 (NDM-1; [16]) [nM]	IC50 (IMP-1; [17]) [nM]	IC50 (VIM-1; [18]) [nM]	Klebsiella pneumoniae MITC95 [1, 19] [µM]	Serratia marcescens MITC95 [2, 20] [µM]	Escherichia coli MITC95 [3, 21] [µM]	further results
NS(=O)(=O)c1cccc(-c2ccc(CNCCn3ccnn3)cc2)c1-c1nnn[nH]1 [Example 350, 2-(1H-tetrazol-5-yl)-4′-({[2-(1H-1,2,3-triazol-1-yl)ethyl]amino}methyl)biphenyl-3-sulfonamide]	39.7	>200	1.563	1.172	–	–	–	–	–	–	IC50 (NDM-1; [4]): 5.8 nM; IC50 (VIM-1; [6]): 246 nM
NS(=O)(=O)c1c(C(F)(F)F)ccc([C@H]2CC[C@H](C3CCNCC3)CC2)c1-c1nnn[nH]1 [Example 832, 3-((1r,4r)-4-(piperidin-4-yl)cyclohexyl)-2-(1H-tetrazol-5-yl)-6-(trifluoromethyl)benzenesulfonamide]	–	–	–	–	–	–	–	–	–	–	IC50 (NDM-1; [10]): 0.501 nM; IC50 (IMP-1; [11]): 1.46 nM; IC50 (VIM-1; [12]): 0.212 nM; Klebsiella pneumoniae MITC95 [1, 13]: 4.688 µM; Serratia marcescens MITC95 [2, 14]: 3.125 µM; Escherichia coli MITC95 [3, 15]: 1.563 µM
CNCCN1CCC(c2ccc(-c3ccc(C(F)(F)F)c(S(N)(=O)=O)c3-c3nnn[nH]3)cc2)CC1 [Example 674, 4′-{1-[2-(methylamino)ethyl]piperi-din-4-yl}-2-(1H-tetrazol-5-yl)-4-(trifluoromethyl)biphenyl-3-sulfonamide]	–	–	–	–	6.63	2.47	17.4	75	6.25	3.125	–
NS(=O)(=O)c1c(CCC2CCNCC2)ccc(-c2ccc(C3CCNCC3)cc2)c1-c1nn[nH]n1 [Example 460, 4′-(piperidin-4-yl)-4-(2-(piperidin-4-yl)ethyl)-2-(2H-tetrazol-5-yl)-[1,1′-biphenyl]-3-sulfonamide]	16.6	1.563	0.3906	0.5859	–	–	–	–	–	–	IC50 (NDM-1): 3.97 nM; IC50 (VIM-1; [6]): 10.4 nM
NC[C@H]1CC[C@H](c2ccc(CC3CCNCC3)c(S(N)(=O)=O)c2-c2nn[nH]n2)CC1 [Example 590, 3-((1r,4r)-4-(aminomethyl)cyclohexyl)-6-(piperidin-4-ylmethyl)-2-(2H-tetrazol-5-yl)benzenesulfonamide]	–	–	–	–	8.27	24.5	8.35	2.344	2.344	1.172	–
CN(Cc1ccccc1)c1ccnc(S(N)(=O)=O)c1-c1nnn[nH]1 [Example 229, 4-[benzyl(methyl)amino]-3-(1H-tetrazol-5-yl)pyridine-2-sulfonamide]	–	–	–	–	–	–	–	–	–	–	IC50 (NDM-1; [10]): 204 nM; IC50 (IMP-1; [11]): 466 nM; IC50 (VIM-1; VIM-1 IC50, fluorescence assay with CCF2-FA substrate): 2.22 nM; Klebsiella pneumoniae expressing VIM-1 (IHMA 599644) MITC95 [1, 22]: 6.25 µM; Serratia marcescens expressing IMP-1 (CL5741) MITC95 [2, 22]: 50 µM; Escherichia coli expressing NDM-1 (CLB 30016) MITC95 [3, 22]: 12.5 µM
NC1Cc2ccc(-c3ccc(C(F)(F)F)c(S(N)(=O)=O)c3-c3nn[nH]n3)cc2C1 (stereo not drawn) [Example 442, 3-(2-amino-2,3-dihydro-1H-inden-5-yl)-2-(2H-tetrazol-5-yl)-6-(trifluoromethyl)benzenesulfonamide]	16.5	0.7813	0.5859	1.172	–	–	–	–	–	–	IC50 (NDM-1; [4]): 11.8 nM; IC50 (VIM-1; [6]): 0.268 nM
Nc1ccc2cccc(-c3ccc(C(F)(F)F)c(S(N)(=O)=O)c3-c3nn[nH]n3)c2n1 [Example 554, 3-(2-amino-8-quinolyl)-2-(2H-tetrazol-5-yl)-6-(trifluoromethyl)benzenesulfonamide]	–	–	–	–	0.115	0.818	0.363	3.125	1.563	3.125	–
Nc1ccc(-c2ccc(CC[C@H]3CC[C@H](N)CC3)c(S(N)(=O)=O)c2-c2nnn[nH]2)cn1 [Example 577, 6-(2-((1r,4s)-4-aminocyclohexyl)ethyl)-3-(6-aminopyridin-3-yl)-2-(1H-tetrazol-5-yl)benzenesulfonamide]	–	–	–	–	2.47	29.6	10.4	12.5	3.125	0.7813	–
Nc1nc2c(-c3ccc(C(F)CO)c(S(N)(=O)=O)c3-c3nn[nH]n3)cccc2s1 (stereo not drawn) [Example 532, 3-(2-Aminobenzo[d]thiazol-4-yl)-6-(1-fluoro-2-hydroxyethyl)-2-(2H-tetrazol-5-yl)benzenesulfonamide]	–	–	–	–	0.598	6.42	3.96	12.5	12.5	12.5	–
CN(CC(=O)O)Cc1ccc(-c2cccc(S(N)(=O)=O)c2-c2nnn[nH]2)cc1 [Example 364, N-methyl-N-{[3′-sulfamoyl-2′-(1H-tetrazol-5-yl)biphenyl-4-yl]methyl}glycine]	100	25	3.125	1.563	–	–	–	–	–	–	IC50 (NDM-1; [4]): 9.17 nM; IC50 (VIM-1; [6]): 212 nM
N=C(N)N1Cc2ccc(-c3ccc(C(F)(F)F)c(S(N)(=O)=O)c3-c3nn[nH]n3)cc2C1 [Example 446, 5-(3-sulfamoyl-2-(2H-tetrazol-5-yl)-4-(trifluoromethyl)phenyl)isoindoline-2-carboximidamide]	19.4	1.563	0.3906	1.563	–	–	–	–	–	–	IC50 (NDM-1; [4]): 15.4 nM; IC50 (VIM-1; [6]): 0.252 nM
NCCN1CCC(c2ccc(-c3cccc(S(N)(=O)=O)c3-c3nnn[nH]3)cc2)CC1 [Example 616, 3-[4-[1-(2-aminoethyl)-4-piperidyl]phenyl]-2-(1H-tetrazol-5-yl)benzenesulfonamide]	–	–	–	–	4.37	14.4	276	75	0.5859	0.3906	–
CC1(O)CCN(c2ccc(C(F)(F)F)c(S(N)(=O)=O)c2-c2nnn[nH]2)CC1 [Example 653, 3-(4-hydroxy-4-methypiperidin-1-yl)-2-(1H-tetrazol-5-yl)-6-(trifluoromethyl)benzenesulfonamide]	–	–	–	–	2.82	4.82	4.5	6.25	0.3906	1.563	–
NS(=O)(=O)c1cccc(-c2ccc(CNCC3(O)CCC3)cc2)c1-c1nnn[nH]1 [Example 376, 4′-({[(1-hydroxycyclobutyl)methyl]amino}methyl)-2-(1H-tetrazol-5-yl)biphenyl-3-sulfonamide]	96.6	15.63	4.688	2.344	–	–	–	–	–	–	IC50 (NDM-1; [4]): 14.4 nM; IC50 (VIM-1; VIM-1 IC50, VIM-1 enzyme, CCF2-FA fluorescence assay): 50.4 nM
Nc1nc2ccc(-c3ccc(C(F)(F)F)c(S(N)(=O)=O)c3-c3nnn[nH]3)cc2s1 [Example 549, 3-(2-amino-1,3-benzothiazol-6-yl)-2-(1H-tetrazol-5-yl)-6-(trifluoromethyl)benzenesulfonamide]	–	–	–	–	0.256	0.472	–	6.25	3.125	1.563	IC50 (VIM-1; [23]): 0.0629 nM
NS(=O)(=O)c1c(C(F)(F)F)ccc(-c2cccc3c2CCCN3)c1-c1nnn[nH]1 [Example 518, 3-(1,2,3,4-Tetrahydroquinolin-5-yl)-2-(1H-tetrazol-5-yl)-6-(trifluoromethyl)benzenesulfonamide]	–	–	–	–	0.775	1.62	–	6.25	0.3906	1.563	IC50 (VIM-1; [23]): 0.342 nM
NC1(CN2CCC3(CCC(c4ccc(C(F)(F)F)c(S(N)(=O)=O)c4-c4nnn[nH]4)CC3)CC2)CC1 [Example 834, 3-[3-[(1-aminocyclopropyl)methyl]-3-azaspiro[5.5]undecan-9-yl]-2-(1H-tetrazol-5-yl)-6-(trifluoromethyl)benzenesulfonamide]	–	–	–	–	–	–	–	–	–	–	IC50 (NDM-1; [10]): 1.49 nM; IC50 (IMP-1; [11]): 5.45 nM; IC50 (VIM-1; [12]): 13.3 nM; Klebsiella pneumoniae MITC95 [1, 13]: 50 µM; Serratia marcescens MITC95 [2, 14]: 6.25 µM; Escherichia coli MITC95 [3, 15]: 6.25 µM

Reference: patent US9708336B2, “Metallo-beta-lactamase inhibitors” (priority 2014, dated 2017)
